Experiments:
Format in all cases: in vivo, Wistar-Kyoto (WKY) rats
CCI rats [1] = experiment: Thermal hyperalgesia in CCI (sciatic nerve ligation) neuropathic pain rats; details: 15 mg/kg DM or 15 mg/kg equivalent of DM, intraperitoneally once daily for a week from day 8 after CCI; examined on day 15 after CCI; compared with corresponding baseline
Procedure: (§1) Adult male WKY rats weighing 200-250 g. Rats were housed individually in each cage and the experiments started at least three days after their arrival. The surgical procedure was performed under pentobarbital anesthesia (50 mg/kg, intraperitoneally). CCI rats were produced by loosely ligating the common sciatic nerve on one side according to the method. Briefly, the right sciatic nerve was exposed in themid-thigh and separated from the adjacent tissue. Four loose ligatures using 4-0 chromic gut sutures were made around the dissected nerve with a 1.0-1.5 mm interval between each pair of ligatures. The skin wound was closed using stainless steel pins. In sham rats, the same surgical procedure was followed except for nerve ligation. DM and formula I (1-1) were diluted in 10% DMSO. The MDSO (10%) was also used for vehicle control.
(§2) The drugs DM (15 mg/kg for DM) or the formula I (1-1) (15 mg/kg equivalent of DM) was given intraperitoneally once daily for a week, beginning in the second week after CCI (i.e., day 8 after CCI).

CCI rats [2] = experiment: Mechanical allodynia in CCI (sciatic nerve ligation) neuropathic pain rats; details: 15 mg/kg DM or 15 mg/kg equivalent of DM, intraperitoneally once daily for a week from day 8 after CCI; examined at end of one-week treatment; compared with corresponding baseline
Procedure: as §1, §2

CCI rats [3] = experiment: Motor deficits or sedation judged by gait and overall appearance; details: 15 mg/kg DM or equivalent, intraperitoneally once daily for a week
Procedure: as §2

SMILES | reducing thermal hyperalgesia (CCI rats [1]) | reducing mechanical allodynia (CCI rats [2]) | motor deficits or sedation (CCI rats [3])
COc1ccc2c(c1)[C@]13CCCC[C@@H]1[C@H](C2)N(C)CC3 [DM, Dextromethorphan] | only marginally effective | effective only in reducing mechanical allodynia | no motor deficits or sedation
CN1CC[C@@]23CCCC[C@@H]2[C@@H]1Cc1ccc(OC(=O)CCCCCC[C@]2(C)CCSS2)cc13 [formula I (1-1)] | reduced thermal hyperalgesia | significantly improved mechanical allodynia | no motor deficits or sedation

— patent US9242939B2, “Compositions and methods for the treatment of respiratory disorders” (CELLIX BIO PRIVATE LIMITED, priority 2012, dated 2016)
